Test system: Sprague Dawley male rats
Experiment: Sexual behaviour of sexually dysfunctional (fluoxetine-treated) male rats
Assay type: in vivo, rat
Details: fluoxetine 20 mg/kg i.p. 3 days (vs vehicle+vehicle); day 4 Compound (1) 15 mg/kg or yohimbine 2 mg/kg i.p. 1 h before test (vs fluoxetine+vehicle)
Procedure: Sprague Dawley male rats (Charles River, UK) were kept, 4 rats per cage, in a reversed lighting regime (12:12 hours, lights off at 5.00 h), with free access to food and water. The rats were pre-selected by being presented with a receptive female at […], i.e. every third day (haying 2 clear days between presentations) until completing 6-7 trials of baseline determination. The animals showing consistently vigorous behaviour (ejaculatory latencies <300 s) were chosen for further experiments. Animals were treated for 3 consecutive days with either vehicle (water) or fluoxetine (20 mg/kg, i.p., in a 2 ml/kg dosing volume). On the fourth day, the animals treated with water received vehicle (veh+veh) and the animals treated with fluoxetine received one of the three following treatments: Compound (1) (15 mg/kg, dissolved in 50% 2-hydroxypropyl-β-cyclodextrin in saline), vehicle (cyclodextrine), or yohimbine (2 mg/kg dissolved in water). All treatments were administered i.p. in a 1 ml/kg volume, 1 h before tests.
For all the sexual behaviour tests, the males were placed in an observation arena (50-60 cm diameter), starting 5 hours into the dark cycle and observed under red illumination. Three to 4 minutes after placing the male in the arena, a receptive female (ovariectomised, bearing a 7 mm Silastic implant of oestradiol benzoate) was introduced to the arena and the following parameters noted: Mount Latency: time (in seconds) taken between introduction of female and first mount. A maximum time of 15 minutes (900 seconds) was allowed, and the test terminated if no mounts were recorded within that time (FIG. 16), Ejaculation Latency: time (in seconds) taken from first intromission to ejaculation. A maximum time of 30 minutes (1800 seconds) was given, and the test terminated if ejaculation was not achieved in that time (FIG. 17), Percentage of males achieving ejaculation within 30 minutes was calculated (FIG. 18).
A one-way ANOVA followed by Dunnett's t test was used to compare the fluoxetine+vehicle group and other groups for mount and ejaculatory latencies. Percentage of animals ejaculating was analysed using a Chi-square test followed by Fisher's test. (*: P<0.05, **: P<0.01, ***: P<0.001; n=15-19).

## COc1ccc(C2(CNC(=O)[C@](C)(Cc3c[nH]c4ccccc34)NC(=O)Nc3ccc([N+](=O)[O-])cc3)CCCCC2)nc1 [Compound (1), (S) 3-(1H-Indol-3-yl)-N-[1-(5-methoxy-pyridin-2-yl)-cyclohexyl-methyl]-2-methyl-2-[3-(4-nitro-phenyl)-ureido]-propionamide]
  Ejaculation latency: significantly decreased
  Mount latency: significantly decreased
  percentage of animals ejaculating (within 30 minutes): increasing the percentage of animals ejaculating

Reference: US20040087561A1, “Treatment of sexual dysfunction” (priority 2000, published 2004)
